Laboratory results as given in ChEMBL document CHEMBL4316596, “Antimicrobial Peptides with High Proteolytic Resistance for Combating Gram-Negative Bacteria” (J Med Chem, 2019).

Key:
Escherichia coli [1] = experiment: Antimicrobial activity against Escherichia coli ATCC 25922 after 24 hrs by NCCLS-protocol based assay; assay type: functional
Escherichia coli [2] = experiment: Antimicrobial activity against Escherichia coli UB1005 after 24 hrs by NCCLS-protocol based assay; assay type: functional
Escherichia coli [3] = experiment: Antimicrobial activity against Escherichia coli 078 after 24 hrs by NCCLS-protocol based assay; assay type: functional
Escherichia coli [4] = experiment: Antimicrobial activity against Escherichia coli K88 after 24 hrs by NCCLS-protocol based assay; assay type: functional
Escherichia coli [5] = experiment: Antimicrobial activity against Escherichia coli K99 after 24 hrs by NCCLS-protocol based assay; assay type: functional
Pseudomonas aeruginosa [6] = experiment: Antimicrobial activity against Pseudomonas aeruginosa ATCC 27853 after 24 hrs by NCCLS-protocol based assay; assay type: functional
Pseudomonas aeruginosa [7] = experiment: Antimicrobial activity against Pseudomonas aeruginosa PAO1 after 24 hrs by NCCLS-protocol based assay; assay type: functional
Pseudomonas aeruginosa [8] = experiment: Antimicrobial activity against Pseudomonas aeruginosa CICC 21630 clinical isolates after 24 hrs by NCCLS-protocol based assay; assay type: functional
Pseudomonas aeruginosa [9] = experiment: Antimicrobial activity against Pseudomonas aeruginosa 26305 clinical isolates after 24 hrs by NCCLS-protocol based assay; assay type: functional
Pseudomonas aeruginosa [10] = experiment: Antimicrobial activity against Pseudomonas aeruginosa CICC 21625 clinical isolates after 24 hrs by NCCLS-protocol based assay; assay type: functional
Pseudomonas aeruginosa [11] = experiment: Antimicrobial activity against Pseudomonas aeruginosa 25349 clinical isolates after 24 hrs by NCCLS-protocol based assay; assay type: functional
Salmonella typhimurium [12] = experiment: Antimicrobial activity against Salmonella typhimurium ATCC 14028 after 24 hrs by NCCLS-protocol based assay; assay type: functional
Salmonella typhimurium [13] = experiment: Antimicrobial activity against Salmonella typhimurium C7731 after 24 hrs by NCCLS-protocol based assay; assay type: functional
[14] = tested on: Salmonella enterica subsp. enterica serovar Pullorum; experiment: (§1) Antimicrobial activity against Salmonella pullorum C7913 after 24 hrs by NCCLS-protocol based assay; assay type: functional
Acinetobacter baumannii [15] = experiment: Antimicrobial activity against Acinetobacter baumannii after 24 hrs by NCCLS-protocol based assay; assay type: functional
Klebsiella pneumoniae [16] = experiment: Antimicrobial activity against Klebsiella pneumoniae after 24 hrs by NCCLS-protocol based assay; assay type: functional
Pseudomonas aeruginosa [17] = experiment: Ratio of MBC against Pseudomonas aeruginosa ATCC 27853 after 26 to 60 passages to MBC against Pseudomonas aeruginosa ATCC 27853; assay type: functional, organism-based
Escherichia coli [18] = experiment: Bactericidal activity against Escherichia coli ATCC 25922 incubated for 4 hrs followed by culture spread on agar plates and cultured overnight; assay type: functional
Escherichia coli [19] = experiment: Bactericidal activity against Escherichia coli UB1005 incubated for 4 hrs followed by culture spread on agar plates and cultured overnight; assay type: functional
Escherichia coli [20] = experiment: Bactericidal activity against Escherichia coli 078 incubated for 4 hrs followed by culture spread on agar plates and cultured overnight; assay type: functional
Escherichia coli [21] = experiment: Bactericidal activity against Escherichia coli K88 incubated for 4 hrs followed by culture spread on agar plates and cultured overnight; assay type: functional
Escherichia coli [22] = experiment: Bactericidal activity against Escherichia coli K99 incubated for 4 hrs followed by culture spread on agar plates and cultured overnight; assay type: functional
Pseudomonas aeruginosa [23] = experiment: Bactericidal activity against Pseudomonas aeruginosa ATCC 27853 incubated for 4 hrs followed by culture spread on agar plates and cultured overnight; assay type: functional
Pseudomonas aeruginosa [24] = experiment: Bactericidal activity against Pseudomonas aeruginosa PAO1 incubated for 4 hrs followed by culture spread on agar plates and cultured overnight; assay type: functional
Pseudomonas aeruginosa [25] = experiment: Bactericidal activity against Pseudomonas aeruginosa CICC 21630 clinical isolates incubated for 4 hrs followed by culture spread on agar plates and cultured overnight; assay type: functional
Pseudomonas aeruginosa [26] = experiment: Bactericidal activity against Pseudomonas aeruginosa 26305 clinical isolates incubated for 4 hrs followed by culture spread on agar plates and cultured overnight; assay type: functional
Pseudomonas aeruginosa [27] = experiment: Bactericidal activity against Pseudomonas aeruginosa CICC 21625 clinical isolates incubated for 4 hrs followed by culture spread on agar plates and cultured overnight; assay type: functional
Pseudomonas aeruginosa [28] = experiment: Bactericidal activity against Pseudomonas aeruginosa 25349 clinical isolates incubated for 4 hrs followed by culture spread on agar plates and cultured overnight; assay type: functional
Salmonella typhimurium [29] = experiment: Bactericidal activity against Salmonella typhimurium ATCC 14028 incubated for 4 hrs followed by culture spread on agar plates and cultured overnight; assay type: functional
Salmonella typhimurium [30] = experiment: Bactericidal activity against Salmonella typhimurium C7731 incubated for 4 hrs followed by culture spread on agar plates and cultured overnight; assay type: functional
[31] = tested on: Salmonella enterica subsp. enterica serovar Pullorum; experiment: (§2) Bactericidal activity against Salmonella pullorum C7913 incubated for 4 hrs followed by culture spread on agar plates and cultured overnight; assay type: functional
Acinetobacter baumannii [32] = experiment: Bactericidal activity against Acinetobacter baumannii incubated for 4 hrs followed by culture spread on agar plates and cultured overnight; assay type: functional
Klebsiella pneumoniae [33] = experiment: Bactericidal activity against Klebsiella pneumoniae incubated for 4 hrs followed by culture spread on agar plates and cultured overnight; assay type: functional
[34] = as §1; assay type: functional, Salmonella enterica subsp. enterica serovar Pullorum; conditions: Salmonella enterica, C7913, 24 h
Escherichia coli [35] = experiment: Bactericidal activity against Escherichia coli ATCC 25922 incubated for 4 hrs followed by culture spread on agar plates and cultured overnight in presence of NaCl; assay type: functional; conditions: ATCC 25922, 4 h, read-out: MBC>99.9
Escherichia coli [36] = experiment: Bactericidal activity against Escherichia coli ATCC 25922 incubated for 4 hrs followed by culture spread on agar plates and cultured overnight in presence of KCl; assay type: functional; conditions: ATCC 25922, 4 h, read-out: MBC>99.9
Escherichia coli [37] = experiment: Bactericidal activity against Escherichia coli ATCC 25922 incubated for 4 hrs followed by culture spread on agar plates and cultured overnight in presence of CaCl2; assay type: functional; conditions: ATCC 25922, 4 h, read-out: MBC>99.9
Escherichia coli [38] = experiment: Bactericidal activity against Escherichia coli ATCC 25922 incubated for 4 hrs followed by culture spread on agar plates and cultured overnight in presence of ZnCl2; assay type: functional; conditions: ATCC 25922, 4 h, read-out: MBC>99.9
Escherichia coli [39] = experiment: Bactericidal activity against Escherichia coli ATCC 25922 incubated for 4 hrs followed by culture spread on agar plates and cultured overnight in presence of FeCl3; assay type: functional; conditions: ATCC 25922, 4 h, read-out: MBC>99.9
Escherichia coli [40] = experiment: Bactericidal activity against Escherichia coli ATCC 25922 incubated for 4 hrs followed by culture spread on agar plates and cultured overnight in presence of NH4Cl; assay type: functional; conditions: ATCC 25922, 4 h, read-out: MBC>99.9
Escherichia coli [41] = experiment: Bactericidal activity against Escherichia coli ATCC 25922 incubated for 4 hrs followed by culture spread on agar plates and cultured overnight in presence of MgCl2; assay type: functional; conditions: ATCC 25922, 4 h, read-out: MBC>99.9
Escherichia coli [42] = experiment: Bactericidal activity against Escherichia coli ATCC 25922 incubated for 4 hrs followed by culture spread on agar plates and cultured overnight in presence of 50% serum albumin; assay type: functional; conditions: ATCC 25922, 4 h, read-out: MBC>99.9
Escherichia coli [43] = experiment: Bactericidal activity against Escherichia coli ATCC 25922 incubated for 4 hrs followed by culture spread on agar plates and cultured overnight in presence of 25% serum albumin; assay type: functional; conditions: ATCC 25922, 4 h, read-out: MBC>99.9
Escherichia coli [44] = experiment: Bactericidal activity against Escherichia coli ATCC 25922 incubated for 4 hrs followed by culture spread on agar plates and cultured overnight in presence of 12.5% serum albumin; assay type: functional; conditions: ATCC 25922, 4 h, read-out: MBC>99.9
[45] = as §2; assay type: functional, Salmonella enterica subsp. enterica serovar Pullorum; conditions: Salmonella enterica, C7913, 4 h; read-out: MBC>99.9
[46] = Salmonella enterica subsp. enterica serovar Typhimurium

## GENTAMICIN
Escherichia coli [1]
  MIC>95: 1 µM
Escherichia coli [2]
  MIC>95: 0.25 µM
Escherichia coli [3]
  MIC>95: 0.25 µM
Escherichia coli [4]
  MIC>95: 0.125 µM
Escherichia coli [5]
  MIC>95: 0.25 µM
Pseudomonas aeruginosa [6]
  MIC>95: 1 µM
Pseudomonas aeruginosa [7]
  MIC>95: 2 µM
Pseudomonas aeruginosa [8]
  MIC>95: 1 µM
Pseudomonas aeruginosa [9]
  MIC>95: > 64 µM
Pseudomonas aeruginosa [10]
  MIC>95: 1 µM
Pseudomonas aeruginosa [11]
  MIC>95: 2 µM
Salmonella typhimurium [12]; [46]
  MIC>95: 1 µM
Salmonella typhimurium [13]; [46]
  MIC>95: 1 µM
[14]
  MIC>95: 1 µM
Acinetobacter baumannii [15]
  MIC>95: 0.25 µM
Klebsiella pneumoniae [16]
  MIC>95: 0.5 µM
Pseudomonas aeruginosa [17]
  Ratio: 32
Escherichia coli [18]
  MBC>99.9: 2 µM
Escherichia coli [19]
  MBC>99.9: 0.25 µM
Escherichia coli [20]
  MBC>99.9: 0.5 µM
Escherichia coli [21]
  MBC>99.9: 0.25 µM
Escherichia coli [22]
  MBC>99.9: 0.25 µM
Pseudomonas aeruginosa [23]
  MBC>99.9: 1 µM
Pseudomonas aeruginosa [24]
  MBC>99.9: 2 µM
Pseudomonas aeruginosa [25]
  MBC>99.9: 2 µM
Pseudomonas aeruginosa [26]
  MBC>99.9: > 64 µM
Pseudomonas aeruginosa [27]
  MBC>99.9: 1 µM
Pseudomonas aeruginosa [28]
  MBC>99.9: 2 µM
Salmonella typhimurium [29]; [46]
  MBC>99.9: 2 µM
Salmonella typhimurium [30]; [46]
  MBC>99.9: 2 µM
[31]
  MBC>99.9: 1 µM
Acinetobacter baumannii [32]
  MBC>99.9: 0.5 µM
Klebsiella pneumoniae [33]
  MBC>99.9: 0.5 µM

## H-IRPIIRPIIRPIIRPIIRPIIRPI-NH2
Escherichia coli [1]; ATCC 25922, 24 h
  MIC95: 2 µM
Escherichia coli [2]; UB1005, 24 h
  MIC95: 2 µM
Escherichia coli [3]; Escherichia coli, 078, 24 h
  MIC95: 2 µM
Escherichia coli [4]; K88, 24 h
  MIC95: 1 µM
Escherichia coli [5]; K99, 24 h
  MIC95: 2 µM
Pseudomonas aeruginosa [6]; ATCC 27853, 24 h
  MIC95: 8 µM
Pseudomonas aeruginosa [7]; PAO1, 24 h
  MIC95: 8 µM
Pseudomonas aeruginosa [8]; CICC 21630, 24 h
  MIC95: > 64 µM
Pseudomonas aeruginosa [9]; Pseudomonas aeruginosa, 26305, 24 h
  MIC95: > 64 µM
Pseudomonas aeruginosa [10]; CICC 21625, 24 h
  MIC95: > 64 µM
Pseudomonas aeruginosa [11]; Pseudomonas aeruginosa, 25349, 24 h
  MIC95: > 64 µM
Salmonella typhimurium [12]; Salmonella enterica, ATCC 14028, 24 h
  MIC95: 4 µM
Salmonella typhimurium [13]; Salmonella enterica, C7731, 24 h
  MIC95: 4 µM
[34]
  MIC95: 4 µM
Acinetobacter baumannii [15]
  MIC95: 4 µM
Klebsiella pneumoniae [16]
  MIC95: 16 µM
Escherichia coli [18]; ATCC 25922, 4 h, read-out: MBC>99.9
  MBC: 2 µM
Escherichia coli [35]
  MBC: 32 µM
Escherichia coli [36]
  MBC: 4 µM
Escherichia coli [37]
  MBC: > 128 µM
Escherichia coli [38]
  MBC: 4 µM
Escherichia coli [39]
  MBC: 8 µM
Escherichia coli [40]
  MBC: 8 µM
Escherichia coli [41]
  MBC: 8 µM
Escherichia coli [42]
  MBC: 64 µM
Escherichia coli [43]
  MBC: 32 µM
Escherichia coli [44]
  MBC: 16 µM
Escherichia coli [19]; UB1005, 4 h, read-out: MBC>99.9
  MBC: 2 µM
Escherichia coli [20]; Escherichia coli, 078, 4 h, read-out: MBC>99.9
  MBC: 2 µM
Escherichia coli [21]; K88, 4 h, read-out: MBC>99.9
  MBC: 1 µM
Escherichia coli [22]; K99, 4 h, read-out: MBC>99.9
  MBC: 4 µM
Pseudomonas aeruginosa [23]; ATCC 27853, 4 h, read-out: MBC>99.9
  MBC: 16 µM
Pseudomonas aeruginosa [24]; PAO1, 4 h, read-out: MBC>99.9
  MBC: 16 µM
Pseudomonas aeruginosa [25]; CICC 21630, 4 h, read-out: MBC>99.9
  MBC: > 64 µM
Pseudomonas aeruginosa [26]; Pseudomonas aeruginosa, 26305, 4 h, read-out: MBC>99.9
  MBC: > 64 µM
Pseudomonas aeruginosa [27]; CICC 21625, 4 h, read-out: MBC>99.9
  MBC: > 64 µM
Pseudomonas aeruginosa [28]; Pseudomonas aeruginosa, 25349, 4 h, read-out: MBC>99.9
  MBC: > 64 µM
Salmonella typhimurium [29]; Salmonella enterica, ATCC 14028, 4 h, read-out: MBC>99.9
  MBC: 4 µM
Salmonella typhimurium [30]; Salmonella enterica, C7731, 4 h, read-out: MBC>99.9
  MBC: 4 µM
[45]
  MBC: 8 µM
Acinetobacter baumannii [32]; read-out: MBC>99.9
  MBC: 8 µM
Klebsiella pneumoniae [33]; read-out: MBC>99.9
  MBC: 8 µM
